Results from patent US20230085307A1, “PYRIDAZINONE COMPOUND AND HERBICIDE” (NISSAN CHEMICAL CORPORATION, priority 2019, published 2023).

Key:
[1] = test system: Japanese bulrush; assay: Test Example 1: herbicidal activity, application before weed generation under submerged conditions (Table 16, symbol B); type: in vivo, Japanese bulrush (Schoenoplectus juncoides); settings: 320 g/ha applied herbicide
Method in brief: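 Emulsion formulation, water-diluted to set dose, was put onto the flooded surface (4 cm depth, alluvial soil) the same day weeds were sown and 2.5-leaf rice transplanted. After 3 weeks at 25-30 °C under glass, each species was rated 0 (≤5% kill) to 5 (≥90% kill).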

[2] = test system: late watergrass; assay: Test Example 2: herbicidal activity, application during weed generation under submerged conditions (Table 17, symbol A); type: in vivo, late watergrass (Echinochloa oryzicola); settings: AAH 320 g/ha; application during weed generation, submerged conditions
Method in brief: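 Steps: fill Wagner pots with alluvial soil; add water to give 4 cm depth; sow the species mixed; grow under glass at 25–30° C.; at 1–2 leaves apply water-diluted emulsion formulation to the water surface at a fixed herbicide amount; score after 3 weeks.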

[3] = test system: barnyard grass; assay: Test Example 3: herbicidal effect by foliage application, Wagner pot (Table 18, symbol H); type: in vivo, barnyard grass (Echinochloa crus-galli); settings: 320 g/ha
Method in brief: (§1)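 Plants were sown in alluvial soil held under 0.1–0.5 cm standing water and grown 14 days in a greenhouse at 25–30 °C. An emulsifiable formulation, water-diluted to the set dose, was then sprayed onto the foliage, and effects were scored three weeks later using previously defined criteria.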

[4] = test system: Chinese sprangletop; assay: Test Example 3: herbicidal effect by foliage application, Wagner pot (Table 18, symbol D); type: in vivo, chinese sprangletop (Leptochloa chinensis); settings: 320 g/ha
Method in brief: as §1

[5] = test system: southern crabgrass; assay: Test Example 4: herbicidal effect by soil treatment (Table 19, symbol F); type: in vivo, southern crabgrass (Digitaria ciliaris); settings: AAH 320 g/ha
Method in brief: (§2)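 Herbicidal effect was rated 3 weeks after treatment, using the scoring criteria of an earlier test. The compound, formulated as an emulsion and diluted in water to a set herbicide amount, had been sprayed uniformly on soil over freshly sown seeds. Growth took place in a greenhouse at 25° C. to 30° C.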

[6] = test system: green foxtail; assay: Test Example 4: herbicidal effect by soil treatment (Table 19, symbol G); type: in vivo, green foxtail (Setaria viridis); settings: AAH 320 g/ha
Method in brief: as §2

[7] = test system: barnyard grass; assay: Test Example 4: herbicidal effect by soil treatment (Table 19, symbol H); type: in vivo, barnyard grass (Echinochloa crus-galli); settings: AAH 320 g/ha
Method in brief: as §2

[8] = test system: blackgrass; assay: Test Example 4: herbicidal effect by soil treatment (Table 19, symbol J); type: in vivo, blackgrass (Alopecurus myosuroides); settings: AAH 320 g/ha
Method in brief: as §2

[9] = test system: velvetleaf; assay: Test Example 4: herbicidal effect by soil treatment (Table 19, symbol M); type: in vivo, velvetleaf (Abutilon theophrasti); settings: AAH 320 g/ha
Method in brief: as §2

[10] = test system: redroot pigweed; assay: Test Example 4: herbicidal effect by soil treatment (Table 19, symbol N); type: in vivo, redroot pigweed (Amaranthus retroflexus); settings: AAH 320 g/ha
Method in brief: as §2

[11] = test system: lambsquarters; assay: Test Example 4: herbicidal effect by soil treatment (Table 19, symbol O); type: in vivo, lambsquarters (Chenopodium album); settings: AAH 320 g/ha
Method in brief: as §2

[12] = test system: chickweed; assay: Test Example 4: herbicidal effect by soil treatment (Table 19, symbol P); type: in vivo, common chickweed (Stellaria media); settings: AAH 320 g/ha
Method in brief: as §2

[13] = test system: wild oat; assay: Test Example 5: herbicidal effect by foliage application, plastic box (Table 20, symbol I); type: in vivo, wild oat (Avena fatua); settings: foliage application; for I: wild oat, herbicidal effect: AAH 320 g/ha, three weeks after application
Method in brief: (§3)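 Foliar spray test: emulsion formulation diluted in water to a set application rate, sprayed onto 14-day-old plants raised in diluvial soil at 25° C to 30° C under glass. Both herbicidal effect and crop effect rated visually three weeks later.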

[14] = test system: blackgrass; assay: Test Example 5: herbicidal effect by foliage application, plastic box (Table 20, symbol J); type: in vivo, blackgrass (Alopecurus myosuroides); settings: foliage application; for J: blackgrass, herbicidal effect: AAH 320 g/ha, three weeks after application
Method in brief: as §3

[15] = test system: Italian ryegrass; assay: Test Example 5: herbicidal effect by foliage application, plastic box (Table 20, symbol K); type: in vivo, Italian ryegrass (Lolium multiflorum); settings: foliage application; for K: Italian ryegrass, herbicidal effect: AAH 320 g/ha, three weeks after application
Method in brief: as §3

[16] = test system: windgrass; assay: Test Example 5: herbicidal effect by foliage application, plastic box (Table 20, symbol L); type: in vivo, windgrass (Apera spica-venti); settings: foliage application; for L: windgrass, herbicidal effect: AAH 320 g/ha, three weeks after application
Method in brief: as §3

[17] = test system: lambsquarters; assay: Test Example 5: herbicidal effect by foliage application, plastic box (Table 20, symbol O); type: in vivo, lambsquarters (Chenopodium album); settings: foliage application; for O: lambsquarters, herbicidal effect: AAH 320 g/ha, three weeks after application
Method in brief: as §3

[18] = 320 g/ha, 3 weeks after application

Compound | Herbicidal effect on B: Japanese bulrush (grade 0-5) [1] | herbicidal effect rating, A: late watergrass [2] | herbicidal effect on H (barnyard grass), rating 0-5 [3] | herbicidal effect on D (Chinese sprangletop), rating 0-5 [4] | F: southern crabgrass, herbicidal effect rating [5] | G: green foxtail, herbicidal effect rating [6] | H: barnyard grass, herbicidal effect rating [7] | J: blackgrass, herbicidal effect rating [8] | M: velvetleaf, herbicidal effect rating [9] | N: redroot pigweed, herbicidal effect rating [10] | O: lambsquarters, herbicidal effect rating [11] | P: chickweed, herbicidal effect rating [12] | I: wild oat, herbicidal effect [13] | J: blackgrass, herbicidal effect [14] | K: Italian ryegrass, herbicidal effect [15] | L: windgrass, herbicidal effect [16] | O: lambsquarters, herbicidal effect [17] | further results
C#CCOc1ccc(-c2sc3ccccc3c2-c2c(O)c(C)nn(C)c2=O)cc1 [1-136] | 2 (Herbicidal rate of 20% or more and less than 40%) | 0 (Herbicidal rate of 5% or less (almost no effect)) | 5 (Herbicidal rate of 90% or more (almost completely withered)) | 4 (Herbicidal rate of 70% or more and less than 90%) | 2 (Herbicidal rate of 20% or more and less than 40%) | 4 (Herbicidal rate of 70% or more and less than 90%) | 4 (Herbicidal rate of 70% or more and less than 90%) | 0 (Herbicidal rate of 5% or less (almost no effect)) | 3 (Herbicidal rate of 40% or more and less than 70%) | 4 (Herbicidal rate of 70% or more and less than 90%) | 5 (Herbicidal rate of 90% or more (almost completely withered)) | 1 (Herbicidal rate of 5% or more and less than 20%) | 0 (Herbicidal rate of 5% or less (almost no effect)) | 1 (Herbicidal rate of 5% or more and less than 20%) | 5 (Herbicidal rate of 90% or more (almost completely withered)) | 5 (Herbicidal rate of 90% or more (almost completely withered)) | 4 (Herbicidal rate of 70% or more and less than 90%) | –
Cc1nn(C)c(=O)c(-c2c(-c3ccc(OCC(F)(F)F)cc3)sc3ccccc23)c1O [1-140] | 2 (Herbicidal rate of 20% or more and less than 40%) | 3 (Herbicidal rate of 40% or more and less than 70%) | 5 (Herbicidal rate of 90% or more (almost completely withered)) | 3 (Herbicidal rate of 40% or more and less than 70%) | 5 (Herbicidal rate of 90% or more (almost completely withered)) | 5 (Herbicidal rate of 90% or more (almost completely withered)) | 5 (Herbicidal rate of 90% or more (almost completely withered)) | 0 (Herbicidal rate of 5% or less (almost no effect)) | 5 (Herbicidal rate of 90% or more (almost completely withered)) | 5 (Herbicidal rate of 90% or more (almost completely withered)) | 5 (Herbicidal rate of 90% or more (almost completely withered)) | 4 (Herbicidal rate of 70% or more and less than 90%) | 0 (Herbicidal rate of 5% or less (almost no effect)) | 4 (Herbicidal rate of 70% or more and less than 90%) | 5 (Herbicidal rate of 90% or more (almost completely withered)) | 3 (Herbicidal rate of 40% or more and less than 70%) | 5 (Herbicidal rate of 90% or more (almost completely withered)) | –
Cc1nn(C)c(=O)c(-c2c(-c3ccc([N+](=O)[O-])cc3)sc3ccccc23)c1O [1-151] | 3 (Herbicidal rate of 40% or more and less than 70%) | 0 (Herbicidal rate of 5% or less (almost no effect)) | 4 (Herbicidal rate of 70% or more and less than 90%) | 3 (Herbicidal rate of 40% or more and less than 70%) | 0 (Herbicidal rate of 5% or less (almost no effect)) | 0 (Herbicidal rate of 5% or less (almost no effect)) | 0 (Herbicidal rate of 5% or less (almost no effect)) | 0 (Herbicidal rate of 5% or less (almost no effect)) | 0 (Herbicidal rate of 5% or less (almost no effect)) | 3 (Herbicidal rate of 40% or more and less than 70%) | 2 (Herbicidal rate of 20% or more and less than 40%) | 0 (Herbicidal rate of 5% or less (almost no effect)) | 0 (Herbicidal rate of 5% or less (almost no effect)) | 0 (Herbicidal rate of 5% or less (almost no effect)) | 5 (Herbicidal rate of 90% or more (almost completely withered)) | 0 (Herbicidal rate of 5% or less (almost no effect)) | 5 (Herbicidal rate of 90% or more (almost completely withered)) | –
CCCC(=O)Oc1c(C)nn(C)c(=O)c1-c1c(-c2ccc([N+](=O)[O-])cc2)sc2ccccc12 [1-152] | 3 (Herbicidal rate of 40% or more and less than 70%) | 3 (Herbicidal rate of 40% or more and less than 70%) | 5 (Herbicidal rate of 90% or more (almost completely withered)) | 5 (Herbicidal rate of 90% or more (almost completely withered)) | 1 (Herbicidal rate of 5% or more and less than 20%) | 2 (Herbicidal rate of 20% or more and less than 40%) | 3 (Herbicidal rate of 40% or more and less than 70%) | 0 (Herbicidal rate of 5% or less (almost no effect)) | 0 (Herbicidal rate of 5% or less (almost no effect)) | 3 (Herbicidal rate of 40% or more and less than 70%) | 0 (Herbicidal rate of 5% or less (almost no effect)) | 3 (Herbicidal rate of 40% or more and less than 70%) | 0 (Herbicidal rate of 5% or less (almost no effect)) | 0 (Herbicidal rate of 5% or less (almost no effect)) | 4 (Herbicidal rate of 70% or more and less than 90%) | 0 (Herbicidal rate of 5% or less (almost no effect)) | 4 (Herbicidal rate of 70% or more and less than 90%) | –
Cc1nn(C)c(=O)c(-c2c(-c3ccc(OC(F)F)cc3)sc3ccccc23)c1O [1-201] | 4 (Herbicidal rate of 70% or more and less than 90%) | 0 (Herbicidal rate of 5% or less (almost no effect)) | 5 (Herbicidal rate of 90% or more (almost completely withered)) | 4 (Herbicidal rate of 70% or more and less than 90%) | 2 (Herbicidal rate of 20% or more and less than 40%) | 5 (Herbicidal rate of 90% or more (almost completely withered)) | 5 (Herbicidal rate of 90% or more (almost completely withered)) | 0 (Herbicidal rate of 5% or less (almost no effect)) | 3 (Herbicidal rate of 40% or more and less than 70%) | 5 (Herbicidal rate of 90% or more (almost completely withered)) | 5 (Herbicidal rate of 90% or more (almost completely withered)) | 4 (Herbicidal rate of 70% or more and less than 90%) | – | – | – | – | – | effect on wild oat (I) [13, 18]: 2 (Herbicidal rate of 20% or more and less than 40%); effect on blackgrass (J) [14, 18]: 4 (Herbicidal rate of 70% or more and less than 90%); effect on Italian ryegrass (K) [15, 18]: 5 (Herbicidal rate of 90% or more (almost completely withered)); effect on windgrass (L) [16, 18]: 4 (Herbicidal rate of 70% or more and less than 90%); effect on lambsquarters (O) [17, 18]: 5 (Herbicidal rate of 90% or more (almost completely withered))
